From patent US4788209A, “Antifungal 2-anilinothiazolines” (Merrell Dow Pharmaceuticals Inc., priority 1987, dated 1988)
In brackets after ≈: the same amount, converted by molar mass. Like-named read-outs stand apart in the source and are kept apart here.

Assays:
[1] = tested on: Candida albicans; test: Single dose therapy of rat vaginitis (vaginal candidiasis) induced by two challenge levels; assay type: in vivo; conditions: 0.2 ml of 10% solution intravaginally, 24 hours after treatment
Experimental: To compare the activity of N-(4-hexylphenyl)-4,5-dihydro-2-thiazolamine with that of the well established antifungal agents miconazole and Clotrimazole, vaginal candidiasis was induced in rats.
Groups of 6 female, ovariectomized rats, 180-200 gram weight, were pretreated for 2 successive days with 0.5 mg of progesterone and 0.5 mg of estradiol administered subcutaneously to induce oestrus. Forty-eight hours later rats were infected intravaginally on 2 successive days with Candida albicans cells. Challenge levels of 1×10^7 and 1×10^6 cells were employed. Seventy-two hours after infection, the rats were treated topically (intravaginally) with 0.2 ml of a 10% solution of test compound in a vehicle consisting of the following: cetyl alcohol, 3.5 gm; glycerol monostearate polyethyleneglycol 100, 4.0 gm; diglycol stearate, 3.0 gm; polyethyleneglycol 400, 18.75 gm; and purified water, 18.75 gm.
Twenty-four hours after treatment, vaginal washings were collected, diluted and mixed with Mycosel agar in petri dishes. The dishes were incubated for 48 hours and colonies were counted to determine the surviving number of yeast cells per vaginal washing.

[2] = tested on: Candida tropicalis; test: Minimal inhibitory concentration against yeasts (Mycophil agar, Steers-Foltz apparatus); assay type: cell-based; conditions: 24 hours at 37° C.
Experimental: (§1) The compounds of the present invention show activity against pathogenic fungi in vitro and in vivo. The activity of N-(4-hexylphenyl)-4,5-dihydro-2-thiazolamine against various yeast fungi commonly responsible for diseases of humans and animals is illustrated in Table I.
(§2) The compound was prepared in 20 ml aliquots of Mycophil agar at concentrations of 1.5 μM to 250 μM. The agar surfaces were innoculated with approximately 1×10^5 yeast cells/ml using a Steers-Foltz apparatus. The plates were incubated for 24 hours at 37° C. and examined for yeast growth. The minimal inhibitory concentration (MIC) is reported as the lowest concentration of compound that inhibited growth.

[3] = tested on: Candida pseudotropicalis; test: as above; assay type: cell-based; conditions: Kluyveromyces marxianus; 24 hours at 37° C.
Experimental: as §1, §2

[4] = tested on: Torulopsis glabrata; test: as above; assay type: cell-based; conditions: Nakaseomyces glabratus; 24 hours at 37° C.
Experimental: as §1, §2

[5] = tested on: Candida parapsilosis; test: as above; assay type: cell-based; conditions: Lodderomyces parapsilosis; 24 hours at 37° C.
Experimental: as §1, §2

[6] = tested on: Candida albicans; test: as above; assay type: cell-based; conditions: 24 hours at 37° C.
Experimental: as §1, §2

Structure (SMILES) | % Killed ([1]; challenge 1 × 10^6 cells) | Cells/ml Lavage ([1]; challenge 1 × 10^6 cells) | % Killed ([1]; challenge 1 × 10^7 cells) | Cells/ml Lavage ([1]; challenge 1 × 10^7 cells) | MIC ([2]; Candida tropicalis, strain 4, read-out: MIC) | MIC ([2]; strain 20) | MIC [3] | MIC [4] | MIC [5] | MIC ([6]; Candida albicans, strain 1, read-out: MIC) | MIC ([6]; strain 8) | MIC ([6]; strain 10) | MIC ([6]; strain 14) | MIC ([6]; strain 16)
Clc1ccccc1C(c1ccccc1)(c1ccccc1)n1ccnc1 [Clotrimazole] | 83% | 1 × 10^4 Cells/ml | 75% | 5 × 10^4 Cells/ml | – | – | – | – | – | – | – | – | – | –
CCCCCCc1ccc(NC2=NCCS2)cc1 [N-(4-Hexylphenyl)-4,5-dihydro-2-thiazolamine] | 97% | 2 × 10^3 Cells/ml | 98% | 5 × 10^3 Cells/ml | 8 µg/mL (≈ 30.5 µM) | 8 µg/mL (≈ 30.5 µM) | 2 µg/mL (≈ 7.62 µM) | 8 µg/mL (≈ 30.5 µM) | 4 µg/mL (≈ 15.2 µM) | 8 µg/mL (≈ 30.5 µM) | 8 µg/mL (≈ 30.5 µM) | 8 µg/mL (≈ 30.5 µM) | 8 µg/mL (≈ 30.5 µM) | 8 µg/mL (≈ 30.5 µM)
Clc1ccc(COC(Cn2ccnc2)c2ccc(Cl)cc2Cl)c(Cl)c1 (stereo not shown) [Miconazole, miconazole] | 88% | 7 × 10^3 Cells/ml | 90% | 2 × 10^4 Cells/ml | – | – | – | – | – | – | – | – | – | –
